Measurements as given in PMC6350621, “Small-molecules that covalently react with a human prolyl hydroxylase – towards activity modulation and substrate capture” (Chemical Communications (Cambridge, England), 2018).

How the values were obtained:
PHD2 = molecular target: T1, PHD2 (Homo sapiens, UniProt Q9GZT9); assay: Denaturing ESI-MS of crosslinking with PHD2; assay type: binding
T1 construct: PHD2_181–426 (hereafter PHD2); His6 (N, cleaved yes); made in house; host or cells: bacterial culture (2x TY, kanamycin, IPTG)
Protocol: In contrast to the likely imine adducts formed with 1/2, the PHD2·Fe·3 covalent adduct was stable to the acidic conditions of denaturing MS. […] The crosslinking could be fitted by a one-site decay function (R^2 = 0.99, GraphPad Prism), consistent with a quasi intramolecular reaction of the PHD2·Fe·3 non-covalent species to give a covalent adduct (Fig. S5, ESI ^†).
Fig. S7 Time-course analysis of crosslinking between PHD2 and 3. PHD2 (20 µM) was incubated (37 °C, 4 h) with FeSO4 (20 µM) and 3 (30 µM). Samples were taken at regular intervals, quenched by acidification and the ratio of covalent crosslinking analysed by ESI-MS under denaturing conditions. Above: overlaid deconvoluted mass spectra; Below: variation of crosslinking with time. Data represent mean intensities of repeats (n=3), error bars show 1 standard […]
Fig. S8 Temperature dependence of the rate of crosslinking of 3 with PHD2. PHD2 (20 µM) was incubated with equimolar Fe(II) and 3 in buffer (50 mM Tris, 150 mM NaCl, pH 7.5) at 4, 20 and 37 °C. The ratio of crosslinking after 1, 2, and 4 h was determined by ESI-MS under denaturing conditions (n = 2), error bars represent 1 standard deviation.
Fig. S9 Ratio of crosslinked PHD2.3 before evaluation of catalytic activity.
100 μM. FeSO4·7H2O was dissolved in 20 mM HCl at a concentration of 100 mM. This solution was then diluted with MilliQ purified water to give a final working concentration of 100 μM. The protein was mixed with the Fe(II) solution and the inhibitor solution to give final concentrations of 20 μM PHD2, 20 μM Fe(II), and 20 μM inhibitor. The resultant solution was incubated for the appropriate time (specified in the text) at 37 […]
(5 min or 20 min) at 37 °C. After incubation, the samples were immediately analysed by ESI-MS.
1.1.2 Denaturing mass spectrometry
Intact protein masses were obtaine by liquid chromatography-mass spectrometry (LC-MS) using a Waters LCT premier XE time-of-flight mass spectrometer interfaced with a Waters 1525u HPLC pump and Waters […]
The protein sample (10 µM, 5 µl) was injected onto a Chromolith FastGradient RP-18 2x50mm Monolithic reverse phase HPLC column and eluted at 0.4 ml.min-1 using a gradient system from Solvent A (water, 0.1 % (v/v) formic acid) to Solvent B (acetonitrile, 0.1 % (v/v) formic acid) according to the following conditions:
Time (Min) %A %B Flow Rate (ml.min-1)
The eluent was transferred directly to the mass spectrometer. The following MS parameters were used:
Capillary voltage – 3,000 V; Sample cone voltage – 50 V; Extraction cone voltage – 1V; Desolvation temperature – 250 °C; Source temperature – 100 °C; Cone gas flow – 100 l.hour-1; Desolvation gas flow (N2) – 830 l.hour-1. Data were processed with MassLynx™ v4.0 (Waters) and protein peaks were deconvoluted using the Maximum Entropy method (MaxEnt1).
1.1.3 Analysis of protein activity by peptide turnover assay using MALDI-MS detection2 PHD2 (20 µM), Fe(II) (20 µM) and the inhibitor (30 µM) in buffer (15 mM ammonium acetate, pH 7.5) were incubated for the appropriate time (specified in the text) at 37 °C. Subsequently, the enzyme (1.5 µL, final […]
ascorbate (1 mM), 2-oxoglutarate (100 µM) and the respective inhibitor (30 µM) in buffer (50 mM Tris, 150 mM NaCl). In the positive control no inhibitor was added. The resultant mixture was incubated at 37 °C and samples ([…]) were taken at regular intervals and quenched by addition of 1% (v/v) aqueous formic acid ([…]). Samples were analysed using a MALDI micro MX mass spectrometer (Waters) in the reflectron positive ion mode. Data were processed using MassLynx v4.0. The yield of crosslinking was determined by comparison of the signal intensities for crosslinked and unmodified protein.
1.1.4 Analysis of protein activity by peptide turnover assay using the AlphaScreen™ 3 The assay consisted of three parts: pre-incubation with inhibitor, the PHD2 hydroxylation reaction, and incubation with the AlphaScreen™ bead mix.

PHD1 = PHD1 (Homo sapiens, UniProt Q96KS0); assay: Denaturing MS covalent adduct formation with PHD1; assay type: binding; conditions: enzyme 20 μM, Fe(II) 30 μM, compound 30 μM, 37 °C, 4 h
PHD3 = PHD3 (Homo sapiens, UniProt Q9H6Z9); assay: Denaturing MS covalent adduct formation with PHD3; assay type: binding; conditions: enzyme 20 μM, Fe(II) 30 μM, compound 30 μM, 37 °C, 4 h
PHD2 (residues 181-426) = PHD2 (residues 181-426) (Homo sapiens, UniProt Q9GZT9); assay: biochemical
Chain of PHD2 (residues 181-426) (Q9GZT9 181-426): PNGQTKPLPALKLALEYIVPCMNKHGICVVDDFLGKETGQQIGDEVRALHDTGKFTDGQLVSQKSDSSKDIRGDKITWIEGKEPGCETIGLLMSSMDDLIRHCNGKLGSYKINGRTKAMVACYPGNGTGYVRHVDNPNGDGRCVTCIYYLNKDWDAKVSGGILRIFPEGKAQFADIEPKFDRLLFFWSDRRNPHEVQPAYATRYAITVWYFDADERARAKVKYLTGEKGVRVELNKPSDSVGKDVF

T1 sequence (Q9GZT9 181-426): as above
Chain of PHD1 (Q96KS0 whole entry): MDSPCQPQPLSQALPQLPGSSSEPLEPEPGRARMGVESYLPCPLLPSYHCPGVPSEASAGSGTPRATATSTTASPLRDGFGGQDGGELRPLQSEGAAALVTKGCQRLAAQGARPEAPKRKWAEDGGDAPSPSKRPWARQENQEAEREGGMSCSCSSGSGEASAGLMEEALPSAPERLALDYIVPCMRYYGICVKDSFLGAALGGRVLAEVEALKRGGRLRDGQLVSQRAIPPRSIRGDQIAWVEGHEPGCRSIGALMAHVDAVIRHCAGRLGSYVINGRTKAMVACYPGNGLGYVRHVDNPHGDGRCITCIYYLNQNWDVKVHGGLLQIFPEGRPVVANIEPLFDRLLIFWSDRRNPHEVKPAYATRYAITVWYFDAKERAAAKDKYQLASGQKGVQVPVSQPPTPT
Chain of PHD3 (Q9H6Z9 whole entry, the tested form may be a part): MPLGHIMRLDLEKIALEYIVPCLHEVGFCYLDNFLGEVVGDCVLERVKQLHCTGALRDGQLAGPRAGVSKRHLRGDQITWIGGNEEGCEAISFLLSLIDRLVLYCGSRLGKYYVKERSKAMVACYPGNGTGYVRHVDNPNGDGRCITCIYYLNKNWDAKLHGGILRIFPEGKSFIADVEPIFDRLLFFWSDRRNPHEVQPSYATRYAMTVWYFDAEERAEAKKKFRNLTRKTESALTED

conversion to crosslinked adduct at 4 °C (PHD2; 4 °C): little conversion
extent of crosslinking, 0 h pre-incubation (PHD2; PHD2 pre-incubated with compound 0 h): 0%
extent of crosslinking, 1 h pre-incubation (PHD2; PHD2 pre-incubated with compound 1 h): 50%
extent of crosslinking, 2 h pre-incubation (PHD2; PHD2 pre-incubated with compound 2 h): 66%
extent of crosslinking, 4 h pre-incubation (PHD2; PHD2 pre-incubated with compound 4 h): 90%
conversion to crosslinked PHD2·Fe·3 after 3 h (PHD2; timecourse, 37 °C, 3 h, PHD2 20 µM, FeSO4 20 µM, compound 30 µM): near complete conversion
covalent reaction with PHD1 (PHD1): did not covalently react
covalent reaction with PHD3 (PHD3): did not covalently react
IC50 (PHD2 (residues 181-426)): > 2 mM
SMILES: C=CC(=O)Nc1cccc(C(=O)NCC(=O)O)c1O [compound 3]
